Experimental findings from ChEMBL document CHEMBL1201862, “PubChem BioAssay data set” (2004) are described below.

Holding throughout (assay): NCI anticancer screen, dose series, 48 h
Test [1] concerns NCI-H460.
The test system of test [2] is EKVX.
In test [3] the test system is MDA-MB-231.
For test [4], the system named is MOLT-4.
Test [5] deals with HCT-15.
For test [6], the system named is SF-539.
The test system of test [7] is NCI-H226.
Test [8] relates to SW-620.
The test system of test [9] is HCT-116.
Test [10] concerns RXF 393.
In test [11] the test system is PC-3.
Test [12] concerns T47D.
Test [13] has as its system SK-MEL-28.
For test [14], the system named is OVCAR-3.
Test [15] deals with UO-31.
Test [16] concerns HOP-62.
The test system of test [17] is MCF7.
Test [18] deals with SF-295.
Test [19] has as its system SK-MEL-5.
The test system of test [20] is SR.

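Interpolation was linear, between the two tested concentrations surrounding the appropriate level; five concentrations were tested over 48 hours in 96-well plates. At the GI50, growth is halved.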 Calls of active or inactive are those of the source. No stated cut-off is given here; in the data, active = GI50 up to about 1.1 µM and inactive = higher.

Turning to `O=C(O)CCSc1nnc(COc2ccc(Cl)cc2)n1-c1ccccc1`, the GI50 in test [1] is > 100 µM (inactive); in [2] it was > 100 µM (inactive); in [3] it was > 100 µM (inactive); in test [4], > 100 µM (inactive); in test [5] it was more than 100 µM; in [6], > 100 µM (inactive). The GI50 in test [7], in test [8], in [9], in [10], in test [11] and in test [12] was > 100 µM (inactive) each time. Besides, the GI50 in test [13], in test [14], in [15], in [16], in test [17] and in test [18] was > 100 µM (inactive) in each case.
With `C[C@H](C1CC2(C)OC2(C)C(=O)O1)[C@H]1CC[C@H]2[C@@H]3[C@@H]4O[C@@H]4[C@@]4(O)CC=CC(=O)[C@]4(C)[C@H]3CC[C@]12C` (stereo partly specified), the GI50 in test [1] is > 50 µM (inactive); in [2], > 50 µM (inactive); in [3], > 50 µM (inactive); in [4] it was > 50 µM (inactive); in test [5], more than 50 µM; in test [7] it was > 50 µM (inactive). In addition, the GI50 is > 50 µM (inactive) in [8]; > 50 µM (inactive) in [9]; 9.71 µM (inactive) in test [10]; > 50 µM (inactive) in [11]; 24.9 µM (inactive) in test [12]; > 50 µM (inactive) in test [13]. In addition, the GI50 in test [19] was > 50 µM (inactive); in [14], > 50 µM (inactive); in test [15] it was 12.3 µM (inactive); in [16], 37.8 µM (inactive); in [17], > 50 µM (inactive); in test [18], > 50 µM (inactive).
In the case of `CCOC(=O)c1cc2c3c(c(C(C)=O)c(OC)c2[nH]1)N(C(=O)CC)CC3`, the GI50 is 16.7 µM (inactive) in test [1]; 11.4 µM (inactive) in [2]; 4.25 µM (inactive) in test [3]; 4.05 µM (inactive) in test [4]; 16.5 µM in test [5]; 19.8 µM (inactive) in test [6]. Further, the GI50 in test [7] is 10.2 µM (inactive); in test [8] it was 24.9 µM (inactive); in [9], 14.4 µM (inactive); in [10] it was 19.6 µM (inactive); in test [11], 23.3 µM (inactive); in [12] it was 4.93 µM (inactive). In addition, the GI50 is 15.3 µM (inactive) in test [13]; 10.9 µM (inactive) in test [19]; 14.5 µM (inactive) in [14]; 12.7 µM (inactive) in [15]; 25.1 µM (inactive) in test [16]; 14.5 µM (inactive) in test [17]. The GI50 in test [18] was 19.3 µM (inactive).
For the compound `CC1CNC(c2ccc(CN3CCC(C4CCN(Cc5ccc(C6=NC(C)CN6)cc5)CC4)CC3)cc2)=N1` (stereo unspecified), the GI50 in test [1] is 18.5 µM (inactive); in [2], 21.7 µM (inactive); in [3], 17.7 µM (inactive); in test [4], 19.7 µM (inactive); in test [5], 27.5 µM; in test [6] it was 20.3 µM (inactive). Besides, the GI50 was 18.2 µM (inactive) in test [8]; 17.9 µM (inactive) in test [9]; 16.9 µM (inactive) in test [10]; 17.7 µM (inactive) in [11]; 19.5 µM (inactive) in test [12]; 32.6 µM (inactive) in test [13]. Moreover, the GI50 is 36.2 µM (inactive) in [19]; 17.5 µM (inactive) in [14]; 26.5 µM (inactive) in [15]; 14.9 µM (inactive) in test [16]; 17 µM (inactive) in test [17]; 17 µM (inactive) in test [18].
In the case of `CC(C)C(=O)CC(Sc1ccc(N)cc1)c1ccccc1` (stereo unspecified), the GI50 is 23.2 µM (inactive) in [1]; 22.3 µM (inactive) in [3]; 25.1 µM (inactive) in test [4]; 27.4 µM in test [5]; 30.5 µM (inactive) in test [6]; 46.5 µM (inactive) in test [7]. The GI50 in test [8] was 16.9 µM (inactive); in test [9] it was 13.3 µM (inactive); in test [10] it was 25.9 µM (inactive); in [11], 35.4 µM (inactive); in test [12] it was 21.9 µM (inactive); in test [13], 30.8 µM (inactive). Besides, the GI50 in [19] is 20.4 µM (inactive); in test [14], 27.6 µM (inactive); in [15], 29.2 µM (inactive); in test [16] it was 37.1 µM (inactive); in [17], 18.2 µM (inactive); in test [18], 25.6 µM (inactive).
On to `O=C(c1ccccc1Cl)n1oc2ccccc2c1=O`, for which the GI50 in test [1] was > 100 µM (inactive); in [2] it was > 100 µM (inactive); in test [3] it was > 100 µM (inactive); in [4] it was 22.8 µM (inactive); in test [5], 85.5 µM; in test [6], 37.8 µM (inactive). The GI50 was 67 µM (inactive) in [7]; 57 µM (inactive) in test [8]; 52.8 µM (inactive) in test [9]; 68.7 µM (inactive) in test [10]; > 100 µM (inactive) in test [11]; > 100 µM (inactive) in [12]. Further, the GI50 in test [13] is > 100 µM (inactive); in test [19] it was 82.4 µM (inactive); in test [14] it was > 100 µM (inactive); in test [15], > 100 µM (inactive); in test [16], > 100 µM (inactive); in [17], 51.1 µM (inactive). In addition, the GI50 in test [18] was > 100 µM (inactive).
For `Cc1ccc2oc3c(c(Br)c(Br)n3C)c(=O)c2c1`, the GI50 is 10.4 µM (inactive) in test [2]; 20.3 µM (inactive) in test [3]; > 100 µM (inactive) in test [4]; more than 100 µM in [5]; 20 µM (inactive) in [6]; 15.6 µM (inactive) in test [7]. The GI50 in [8] is > 100 µM (inactive); in [9], 15.7 µM (inactive); in test [10], 16.9 µM (inactive); in test [11], 35 µM (inactive); in test [12] it was 41.5 µM (inactive); in [13], > 100 µM (inactive). In addition, the GI50 in test [19] is 27.7 µM (inactive); in test [14], 19.6 µM (inactive); in [15], 13.9 µM (inactive); in [16], 17 µM (inactive); in test [17], 90.6 µM (inactive); in test [18], 20.4 µM (inactive).
For `CC(=O)NC1C(OCC(=O)NC(C)C(=O)NC(CCC(=O)NCCCCCNc2ccc([N+](=O)[O-])c3[nH]c4ccccc4c(=O)c23)C(N)=O)C(O)C(CO)OC1(C)OCc1ccccc1` (stereo unspecified), the GI50 in test [1] was 18.4 µM (inactive); in [2], > 50 µM (inactive); in test [3] it was 12 µM (inactive); in [4], 13.3 µM (inactive); in [5] it was more than 50 µM; in test [6], > 50 µM (inactive). For the same compound, the GI50 in test [7] is > 50 µM (inactive); in test [8], > 50 µM (inactive); in test [9] it was 19.4 µM (inactive); in test [10], 3.48 µM (inactive); in test [11] it was > 50 µM (inactive); in [12], > 50 µM (inactive). The GI50 in test [19] is > 50 µM (inactive); in test [14] it was > 50 µM (inactive); in test [15], > 50 µM (inactive); in test [16], 14.8 µM (inactive); in test [17], > 50 µM (inactive); in test [18] it was 45.4 µM (inactive).
Take `CC[C@]1(Cc2ccc(OC)c(OC)c2)[C@@H]2C[C@@H](C(=O)OC)ON2O[C@H](OC2CCCC2(c2ccccc2)c2ccccc2)[C@@H]1OC(C)=O` (stereo partly specified): the GI50 in [1] was > 100 µM (inactive); in test [2], > 100 µM (inactive); in test [3] it was > 100 µM (inactive); in test [20] it was 66.7 µM (inactive); in [4], > 100 µM (inactive); in test [5], more than 100 µM. The GI50 in test [7], in [8], in test [9], in test [10], in test [12] and in [13] was > 100 µM (inactive) each time. Besides, the GI50 in test [19], in test [14], in test [15], in [16], in [17] and in test [18] was > 100 µM (inactive) throughout.
Consider `CCCNC1=Nc2ccccc2[C@@H]2N(C)c3ccccc3C(C)C[C@]12C` (stereo partly specified), for which the GI50 is 24.5 µM (inactive) in [1]; 32.4 µM (inactive) in [2]; 15.8 µM (inactive) in [3]; 18.1 µM (inactive) in [4]; 23.6 µM in test [5]; 16.4 µM (inactive) in [6]. For the same compound, the GI50 was 34 µM (inactive) in test [7]; 16.5 µM (inactive) in test [8]; 14.8 µM (inactive) in [9]; 19.7 µM (inactive) in test [10]; 16 µM (inactive) in test [11]; 20 µM (inactive) in test [12]. For the same compound, the GI50 in [13] was 18.3 µM (inactive); in test [19], 15.6 µM (inactive); in [14], 19.2 µM (inactive); in test [15] it was 27.9 µM (inactive); in [16], 16.4 µM (inactive); in test [17], 21.3 µM (inactive). In test [18], the GI50 is 16.3 µM (inactive).
For `COc1cc2oc(-c3ccc(O)cc3)cc(=O)c2c(OC)c1O`, the GI50 was 45.7 µM (inactive) in test [1]; > 100 µM (inactive) in [2]; 46.9 µM (inactive) in [3]; > 100 µM (inactive) in [4]; 92.7 µM in test [5]; > 100 µM (inactive) in [6]. Also, the GI50 was > 100 µM (inactive) in test [7]; > 100 µM (inactive) in test [8]; 54 µM (inactive) in test [9]; 29 µM (inactive) in test [10]; 6.41 µM (inactive) in test [12]; > 100 µM (inactive) in test [13]. The GI50 was 49.4 µM (inactive) in test [19]; 80.9 µM (inactive) in [14]; 33.2 µM (inactive) in [15]; 29.2 µM (inactive) in [16]; > 100 µM (inactive) in test [17]; 62.5 µM (inactive) in test [18].
